Test results taken from ChEMBL document CHEMBL1201862, “PubChem BioAssay data set” (2004).
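48-hour exposure; five concentrations; linearly interpolated endpoints. GI50 = concentration required for 50% inhibition of growth.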 Activity calls are given as the source filed them. Rule as the data show it: active = GI50 up to about 1.1 µM and inactive = higher. Numbered stars: 1 amine (or outer) side, 2 acyl side, 3 side chain; on linkers, the order of the positions; unused ones are H or OH. Bridge positions count the residues as written; N and C are the ends. Square brackets hold non-standard residues; d marks the D form. Peptide text beside a SMILES is read from it. I, II: the chains in the order shown. Actinocin(9to1) = Cc1c2oc3c(C)ccc(C(=O)[*:1])c3nc-2c(C(=O)[*:2])c(N)c1=O; X48 = O=C1CC(C(=O)[*:2])N([*:1])C1; NMeV = CN[CH](C(=O)O)C(C)C; Sar = CNCC(=O)O

Columns and labels:
Assay in all cases: DTP human tumour cell line panel, 48 h
COLO 205 = tested on: COLO 205
MCF7 = tested on: MCF7
NCI/ADR-RES = tested on: NCI/ADR-RES
HL-60 = tested on: HL-60
ACHN = tested on: ACHN
UACC-257 = tested on: UACC-257
RXF 393 = tested on: RXF 393
SK-MEL-28 = tested on: SK-MEL-28
SW-620 = tested on: SW-620
MOLT-4 = tested on: MOLT-4
HT-29 = tested on: HT-29
SF-295 = tested on: SF-295
OVCAR-8 = tested on: OVCAR-8
786-0 = tested on: 786-0
CCRF-CEM = tested on: CCRF-CEM
OVCAR-5 = tested on: OVCAR-5
SF-268 = tested on: SF-268
CAKI-1 = tested on: CAKI-1
NCI-H522 = tested on: NCI-H522
NCI-H460 = tested on: NCI-H460

Compound | GI50 (COLO 205) | GI50 (MCF7) | GI50 (NCI/ADR-RES) | GI50 (HL-60) | GI50 (ACHN) | GI50 (UACC-257) | GI50 (RXF 393) | GI50 (SK-MEL-28) | GI50 (SW-620) | GI50 (MOLT-4) | GI50 (HT-29) | GI50 (SF-295) | GI50 (OVCAR-8) | GI50 (786-0) | GI50 (CCRF-CEM) | GI50 (OVCAR-5) | GI50 (SF-268) | GI50 (CAKI-1) | GI50 (NCI-H522) | GI50 (NCI-H460)
CCOC(=O)C(NC(=O)c1ccccc1)(N1CCOCC1)C(F)(F)F (configuration not stated) | > 100 µM (inactive) | > 100 µM (inactive) | > 100 µM (inactive) | > 100 µM (inactive) | > 100 µM (inactive) | > 100 µM (inactive) | > 100 µM (inactive) | > 100 µM (inactive) | > 100 µM (inactive) | > 100 µM (inactive) | > 100 µM (inactive) | > 100 µM (inactive) | > 100 µM (inactive) | > 100 µM (inactive) | > 100 µM (inactive) | > 100 µM (inactive) | > 100 µM (inactive) | > 100 µM (inactive) | > 100 µM (inactive) | –
Cc1ccc(O)c(C(c2cccc(C(c3cc(C)ccc3O)c3cc(C)ccc3O)c2)c2cc(C)ccc2O)c1 | 1.21 µM (inactive) | 1.58 µM (inactive) | 3.01 µM (inactive) | 2.01 µM (inactive) | 1.73 µM (inactive) | 1.94 µM (inactive) | 1.69 µM (inactive) | 1.83 µM (inactive) | 1.66 µM (inactive) | 2.6 µM (inactive) | 1.66 µM (inactive) | 2.24 µM (inactive) | 2 µM (inactive) | 1.69 µM (inactive) | 2.38 µM (inactive) | 1.69 µM (inactive) | 1.6 µM (inactive) | 1.52 µM (inactive) | 1.64 µM (inactive) | –
COc1ccc([C@H]2[C@H](C)C3=Nc4ccccc4CN32)cc1 | 45.1 µM (inactive) | 59.7 µM (inactive) | > 100 µM (inactive) | 29.9 µM (inactive) | 86.9 µM (inactive) | > 100 µM (inactive) | > 100 µM (inactive) | 33.2 µM (inactive) | 39.9 µM (inactive) | 36.8 µM (inactive) | 35.8 µM (inactive) | 49.4 µM (inactive) | 71.8 µM (inactive) | 54.1 µM (inactive) | – | > 100 µM (inactive) | 98.9 µM (inactive) | > 100 µM (inactive) | > 100 µM (inactive) | 31.6 µM (inactive)
CC1=NC2(CCCCC2)N(Cl)C(=O)C1SC#N (configuration not stated) | 63.1 µM (inactive) | 23.6 µM (inactive) | 20.3 µM (inactive) | > 100 µM (inactive) | 17.7 µM (inactive) | – | 18.3 µM (inactive) | 18 µM (inactive) | 12.8 µM (inactive) | 4.97 µM (inactive) | 20.7 µM (inactive) | 18.7 µM (inactive) | 17.9 µM (inactive) | 17.5 µM (inactive) | 2.58 µM (inactive) | 22.8 µM (inactive) | 18 µM (inactive) | – | 16.7 µM (inactive) | > 10 µM (inactive)
COC(=O)C1(SC)C2CCC3C2CCC31 (configuration not stated) | > 100 µM (inactive) | > 100 µM (inactive) | > 100 µM (inactive) | > 100 µM (inactive) | > 100 µM (inactive) | > 100 µM (inactive) | > 100 µM (inactive) | > 100 µM (inactive) | > 100 µM (inactive) | > 100 µM (inactive) | – | > 100 µM (inactive) | > 100 µM (inactive) | > 100 µM (inactive) | > 100 µM (inactive) | > 100 µM (inactive) | > 100 µM (inactive) | > 100 µM (inactive) | > 100 µM (inactive) | > 100 µM (inactive)
O=C(NN=C1NCCCN1)c1ccco1 | > 100 µM (inactive) | > 100 µM (inactive) | > 100 µM (inactive) | > 100 µM (inactive) | > 100 µM (inactive) | > 100 µM (inactive) | > 100 µM (inactive) | > 100 µM (inactive) | > 100 µM (inactive) | > 100 µM (inactive) | > 100 µM (inactive) | > 100 µM (inactive) | > 100 µM (inactive) | > 100 µM (inactive) | > 100 µM (inactive) | > 100 µM (inactive) | > 100 µM (inactive) | – | > 100 µM (inactive) | > 100 µM (inactive)
COC(=O)c1cc(C#N)[nH]c1-c1ccsc1 | > 100 µM (inactive) | 10 µM (inactive) | > 100 µM (inactive) | 18.2 µM (inactive) | 85.7 µM (inactive) | 54.3 µM (inactive) | 72.4 µM (inactive) | > 100 µM (inactive) | > 100 µM (inactive) | 8.63 µM (inactive) | > 100 µM (inactive) | > 100 µM (inactive) | > 100 µM (inactive) | > 100 µM (inactive) | 76.2 µM (inactive) | > 100 µM (inactive) | > 100 µM (inactive) | 51.2 µM (inactive) | 87.7 µM (inactive) | –
OC(C/C(=N\N=C(/CC(O)(C(F)(F)F)C(F)(F)F)c1ccccc1)c1ccccc1)(C(F)(F)F)C(F)(F)F | > 10 µM (inactive) | > 10 µM (inactive) | > 10 µM (inactive) | > 10 µM (inactive) | > 10 µM (inactive) | > 10 µM (inactive) | 3.17 µM (inactive) | > 10 µM (inactive) | > 10 µM (inactive) | > 10 µM (inactive) | > 10 µM (inactive) | 6.44 µM (inactive) | > 10 µM (inactive) | > 10 µM (inactive) | > 10 µM (inactive) | > 10 µM (inactive) | > 10 µM (inactive) | > 10 µM (inactive) | > 10 µM (inactive) | > 10 µM (inactive)
CC(=O)C1=CN=C2C(=O)N(c3ccccc3)N(C)C12C (configuration not stated) | > 100 µM (inactive) | > 100 µM (inactive) | 55.1 µM (inactive) | > 100 µM (inactive) | > 100 µM (inactive) | > 100 µM (inactive) | > 100 µM (inactive) | – | > 100 µM (inactive) | > 100 µM (inactive) | – | > 100 µM (inactive) | > 100 µM (inactive) | > 100 µM (inactive) | > 100 µM (inactive) | > 100 µM (inactive) | – | > 100 µM (inactive) | > 100 µM (inactive) | –
CCn1c(SCC(=O)NNC(=S)Nc2ccc(Cl)cc2)nc2ccccc2c1=O | 70 µM (inactive) | 56.2 µM (inactive) | 47.1 µM (inactive) | 29.9 µM (inactive) | 47.9 µM (inactive) | 53.2 µM (inactive) | 26.2 µM (inactive) | 56.6 µM (inactive) | 95.1 µM (inactive) | 30.8 µM (inactive) | – | 41.9 µM (inactive) | 43 µM (inactive) | 45.1 µM (inactive) | 33.1 µM (inactive) | > 100 µM (inactive) | 87.1 µM (inactive) | 43.9 µM (inactive) | 59 µM (inactive) | 49.8 µM (inactive)
Nc1nc(Cl)cc(OCC2(CO)CCCC2)n1 | – | > 100 µM (inactive) | > 100 µM (inactive) | > 100 µM (inactive) | > 100 µM (inactive) | > 100 µM (inactive) | 79.8 µM (inactive) | > 100 µM (inactive) | > 100 µM (inactive) | > 100 µM (inactive) | > 100 µM (inactive) | > 100 µM (inactive) | > 100 µM (inactive) | > 100 µM (inactive) | > 100 µM (inactive) | > 100 µM (inactive) | > 100 µM (inactive) | – | > 100 µM (inactive) | > 100 µM (inactive)
NC(Cc1ccc(S(=O)(=O)O)cc1)C(=O)NC(Cc1ccc(S(=O)(=O)O)cc1)C(=O)O (configuration not stated) | > 100 µM (inactive) | > 100 µM (inactive) | > 100 µM (inactive) | > 100 µM (inactive) | > 100 µM (inactive) | > 100 µM (inactive) | > 100 µM (inactive) | > 100 µM (inactive) | > 100 µM (inactive) | > 100 µM (inactive) | > 100 µM (inactive) | > 100 µM (inactive) | > 100 µM (inactive) | > 100 µM (inactive) | > 100 µM (inactive) | > 100 µM (inactive) | > 100 µM (inactive) | > 100 µM (inactive) | > 100 µM (inactive) | > 100 µM (inactive)
Cc1cc(S(=O)(=O)Nc2nc(N)n(-c3ccccn3)n2)c(S)cc1Cl | > 100 µM (inactive) | > 100 µM (inactive) | > 100 µM (inactive) | > 100 µM (inactive) | > 100 µM (inactive) | > 100 µM (inactive) | > 100 µM (inactive) | > 100 µM (inactive) | > 100 µM (inactive) | > 100 µM (inactive) | > 100 µM (inactive) | – | > 100 µM (inactive) | > 100 µM (inactive) | > 100 µM (inactive) | > 100 µM (inactive) | > 100 µM (inactive) | > 100 µM (inactive) | > 100 µM (inactive) | > 100 µM (inactive)
Cc1c2oc3c(C)ccc(C(=O)NC4C(=O)NC(C(C)C)C(=O)N5CC(=O)CC5C(=O)N(C)CC(=O)N(C)C(C(C)C)C(=O)OC4C)c3nc-2c(C(=O)NC2C(=O)NC(C(C)C)C(=O)N3CC(=O)CC3C(=O)N(C)CC(=O)N(C)C(C(C)C)C(=O)OC2C)c(N)c1=O (configuration not stated) (I: TV[X48][Sar][NMeV] / II: TV[X48][Sar][NMeV]; ester I:1-I:C, II:1-II:C; linker I:N-II:N via Actinocin(9to1); configuration not given here) | > 1 µM (active) | 0.0277 µM (active) | > 1 µM (active) | > 1 µM (active) | > 1 µM (active) | > 1 µM (active) | 0.476 µM (active) | > 1 µM (active) | > 1 µM (active) | > 1 µM (active) | > 1 µM (active) | > 1 µM (active) | > 1 µM (active) | > 1 µM (active) | > 1 µM (active) | > 1 µM (active) | – | > 1 µM (active) | – | > 1 µM (active)
